In US8044073B2, “Aminobenzimidazoles and benzimidazoles as inhibitors of respiratory syncytial virus replication” (Tibotec Pharmaceuticals, priority 2003, dated 2011):
Read-outs that look alike come from different tables or passages of the source.

Tests used:
[1] = test system: Respiratory Syncytial Virus; test: In vitro screening for activity against RSV (tetrazolium-based colorimetric assay, protection against viral cytopathology); format: cell-based; conditions: human respiratory syncytial virus, read-out: Activity (converted)
Procedure, shortened: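 HeLa cells in Eagle's Basal Medium with 5% FCS and 20 mM Hepes, ~100 TCID50 RSV, five five-fold compound dilutions in triplicate with mock-infected row for cytotoxicity; 7 days at 37 °C, 5% CO2. MTT formazan read at 540 minus 690 nm; EC50 and CC50 from dose-response curves, SI = CC50/EC50.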

[2] = 168 h, Table 3, RSV in HeLa cells, MTT, seven days after infection, pEC50 = -log of EC50 in molar units
[3] = Table 6, numeric activity values, pEC50 (−log of EC50 in molar units)
[4] = 168 h, Table 5b, RSV in HeLa cells, MTT, seven days after infection, pEC50 = -log of EC50 in molar units
[5] = 168 h, Table 1, RSV in HeLa cells, MTT, seven days after infection, pEC50 = -log of EC50 in molar units

Row | Structure (SMILES) | melting point [°C] | also measured
1 | CNc1nc2ccc(CN(CCO)c3cccc(C)c3)cc2n1Cc1nc(C)ccc1O [Compound 195, 2-(6-{[(2-hydroxy-ethyl)-m-tolyl-amino]-methyl}-2-methylamino-benzoimidazol-1-ylmethyl)-6-methyl-pyridin-3-ol] | 204 | EC50 ([1]; 168 h, Table 5a, RSV in HeLa cells, MTT, seven days after infection, pEC50 = -log of EC50 in molar units): 15.8 nM
2 | Cc1cccc(N(CCO)Cc2ccc3nc(N)n(Cc4nc(C)ccc4O)c3c2)c1 [Compound 129, 2-(2-amino-6-{[(2-hydroxy-ethyl)-m-tolyl-amino]-methyl}-benzoimidazol-1-ylmethyl)-6-methyl-pyridin-3-ol] | 210 | EC50 [1, 2]: 0.501 nM
3 | Cc1ccc(O)c(Cn2c(N)nc3ccc(CN(CCN4CCOCC4)c4ccccc4CCO)cc32)n1 [Compound 160, 2-(2-Amino-6-{[[2-(2-hydroxy-ethyl)-phenyl]-(2-morpholin-4-yl-ethyl)-amino]-methyl}-benzoimidazol-1-ylmethyl)-6-methyl-pyridin-3-ol] | 184 | EC50 [1, 2]: 7.94 nM
4 | Cc1ccc(O)c(Cn2cnc3ccc(N)cc32)n1 [Compound 261] | > 250 | EC50 [1, 3]: > 100000 nM
5 | Cc1ccc(O)c(Cn2c(N)nc3ccc(Cn4c(=O)n(C5CC5)c5ccncc54)cc32)n1 [Compound 183] | > 250 | EC50 ([1]; 168 h, Table 3b, RSV in HeLa cells, MTT, seven days after infection, pEC50 = -log of EC50 in molar units): 39.8 nM
6 | Cc1ccc(O)c(Cn2cnc3cc(N)ccc32)n1 [Compound 259] | 248 | EC50 [1, 3]: > 100000 nM
7 | Nc1nc2cc(CO)ccc2n1Cc1cccc2cccnc12 [Compound 224, (2-amino-1-quinolin-8-ylmethyl-1H-benzoimidazol-5-yl)-methanol] | > 260 | EC50 [1, 4]: > 100000 nM
8 | Cc1cccc(N(CCCO)Cc2ccc3nc(N)n(Cc4cccc5cccnc45)c3c2)c1 [Compound 205, 3-[(2-amino-3-quinolin-8-ylmethyl-3H-benzoimidazol-5-ylmethyl)-m-tolyl-amino]-propan-1-ol] | 191 | EC50 [1, 4]: 50.1 nM
9 | Cc1ccc(CCCO)c(NCc2ccc3nc(N)n(Cc4nc(C)ccc4O)c3c2)c1 [Compound 90, 2-(2-amino-6-{[2-(3-hydroxy-propyl)-5-methyl-phenylamino]-methyl}-benzimidazol-1-ylmethyl)-6-methylpyridin-3-ol] | 248 | EC50 [1, 5]: 0.0316 nM
10 | Cc1ccc(O)c(Cn2c(N)nc3ccc(CN(CCCCO)c4cccc(Br)c4)cc32)n1 [Compound 139, 2-(2-Amino-6-{[(3-bromo-phenyl)-(4-hydroxy-butyl)-amino]-methyl}-benzoimidazol-1-ylmethyl)-6-methyl-pyridin-3-ol] | 120 | EC50 [1, 2]: 0.398 nM
11 | Cc1ccc(O)c(Cn2c(N)nc3ccc(CNc4cccc(OC(F)(F)F)c4)cc32)n1 [Compound 4, 2-{2-Amino-6-[(3-trifluoromethoxyphenylamino)-methyl]-benzoimidazol-1-ylmethyl}-6-methyl-pyridin-3-ol] | 156 | EC50 [1, 5]: 2.51 nM
